Assay results published in publication PMC4503722, “Novel Phenotypic Outcomes Identified for a Public Collection of Approved Drugs from a Publicly Accessible Panel of Assays” (PLoS ONE, 2015).

Legend:
SNU-C1 = assay: cells; format: cell-based
[1] = tested on: ECFC/ADSC co-culture cell nuclei number
HT-29 = assay: cells; format: cell-based
HCT116 = assay: cells; format: cell-based
RKO = assay: cells; format: cell-based
[2] = tested on: HCT116 cells treated with a GSK3β inhibitor; assay: cells; format: cell-based
Colo320 = assay: cells; format: cell-based
DLD-1 = assay: cells; format: cell-based
SW480 = assay: cells; format: cell-based
[3] = tested on: endothelial tube formation in co-cultures of ECFCs and ADSCs treated with VEGF; assay: cells; format: cell-based, human
[4] = assay number 26, GSK3b inhibitor pretreated

Compound	Basal_Viability ATP SNU-C1 IC50/EC50 (SNU-C1; assay number 30, basal)	VEGF_ADSC\ECFC Angio Hoechst NucArea IC50/EC50 [1]	Basal_Viability ATP HT-29 IC50/EC50 (HT-29; assay number 28, basal)	Basal_Viability ATP HCT116 IC50/EC50 (HCT116; assay number 25, basal)	Basal_Viability ATP RKO IC50/EC50 (RKO; assay number 29, basal)	GSK3b inh pretreated_Viability ATP HCT116 IC50/EC50 [2, 4]	Basal_Viability ATP Colo 320 IC50/EC50 (Colo320; assay number 27, basal)	Basal_Viability ATP DLD-1 IC50/EC50 (DLD-1; assay number 23, basal)	Basal_Viability ATP SW480 IC50/EC50 (SW480; assay number 24, basal)	VEGF_ADSC\ECFC Angio CD31 TubeArea IC50/EC50 [3]	further results
CCN(CC)C(=O)c1cccnc1 [NCGC00166026-02]	> 20 µM	> 10 µM	> 20 µM	> 20 µM	> 20 µM	> 20 µM	> 20 µM	> 20 µM	> 20 µM	> 10 µM	
CSc1ccc2c(c1)N(CCC1CCCCN1C)c1ccccc1S2 (centres unmarked) [NCGC00016059-13]	2.905 µM	9.242 µM	5.8969 µM	> 20 µM	5.4868 µM	8.1146 µM	7.9244 µM	> 20 µM	3.7076 µM	> 10 µM	
CNC(=O)Oc1cccc2ccccc12 [NCGC00090680-06]											IC50 (SNU-C1; assay number 30, basal, read-out: Basal_Viability ATP SNU-C1 summarized IC50): > 20 µM; IC50 ([1]; read-out: VEGF_ADSC\ECFC Angio Hoechst NucArea summarized IC50): > 10 µM; IC50 (HT-29; assay number 28, basal, read-out: Basal_Viability ATP HT-29 summarized IC50): > 20 µM; IC50 (HCT116; assay number 25, basal, read-out: Basal_Viability ATP HCT116 summarized IC50): > 20 µM; IC50 (RKO; assay number 29, basal, read-out: Basal_Viability ATP RKO summarized IC50): > 20 µM; IC50 ([2]; assay number 26, GSK3b inhibitor pretreated, read-out: GSK3b inh pretreated_Viability ATP HCT116 summarized IC50): > 20 µM; IC50 (Colo320; assay number 27, basal, read-out: Basal_Viability ATP Colo 320 summarized IC50): > 20 µM; IC50 (DLD-1; assay number 23, basal, read-out: Basal_Viability ATP DLD-1 summarized IC50): > 20 µM; IC50 (SW480; assay number 24, basal, read-out: Basal_Viability ATP SW480 summarized IC50): > 20 µM; IC50 ([3]; read-out: VEGF_ADSC\ECFC Angio CD31 TubeArea summarized IC50): > 10 µM
CCCCCCCCOC(=O)c1ccccc1C(=O)OCCCCCCCC [NCGC00090781-05]	> 20 µM	> 10 µM	> 20 µM	> 20 µM	> 20 µM	> 20 µM	> 20 µM	> 20 µM	> 20 µM	> 10 µM	
CC(C)(CO)[C@@H](O)C(=O)NCCC(=O)NCCSSCCNC(=O)CCNC(=O)[C@H](O)C(C)(C)CO [NCGC00181028-02]		> 10 µM								> 10 µM	Basal_Viability ATP SNU-C1 IC50/EC50 (SNU-C1; assay number 30, concentration response): > 20 µM; Basal_Viability ATP HT-29 IC50/EC50 (HT-29; assay number 28, concentration response): > 20 µM; Basal_Viability ATP HCT116 IC50/EC50 (HCT116; assay number 25, basal, concentration response): > 20 µM; Basal_Viability ATP RKO IC50/EC50 (RKO; assay number 29, concentration response): > 20 µM; GSK3b inh pretreated_Viability ATP HCT116 IC50/EC50 ([2]; assay number 26, GSK3b inhibitor pretreated, concentration response): > 20 µM; Basal_Viability ATP Colo 320 IC50/EC50 (Colo320; assay number 27, concentration response): > 20 µM; Basal_Viability ATP DLD-1 IC50/EC50 (DLD-1; assay number 23, concentration response): > 20 µM; Basal_Viability ATP SW480 IC50/EC50 (SW480; assay number 24, concentration response): > 20 µM
O=C1c2ccccc2C(=O)C1C(=O)C(c1ccccc1)c1ccccc1 [NCGC00160553-03]											IC50/EC50, Basal_Viability ATP SNU-C1 (assay number 30) (SNU-C1): 4.0068 µM; IC50/EC50, VEGF_ADSC\ECFC Angio Hoechst NucArea (assay number 3) [1]: > 10 µM; IC50/EC50, Basal_Viability ATP HT-29 (assay number 28) (HT-29): 4.4845 µM; IC50/EC50, Basal_Viability ATP HCT116 (assay number 25) (HCT116): 0.5307 µM; IC50/EC50, Basal_Viability ATP RKO (assay number 29) (RKO): 1.5932 µM; IC50/EC50, GSK3b inh pretreated_Viability ATP HCT116 (assay number 26) [2]: 0.5674 µM; IC50/EC50, Basal_Viability ATP Colo 320 (assay number 27) (Colo320): 0.6211 µM; IC50/EC50, Basal_Viability ATP DLD-1 (assay number 23) (DLD-1): 1.326 µM; IC50/EC50, Basal_Viability ATP SW480 (assay number 24) (SW480): 0.5361 µM; IC50/EC50, VEGF_ADSC\ECFC Angio CD31 TubeArea (assay number 2) [3]: > 10 µM
CCCCC[C@@H](O)CC[C@H]1[C@@H]2Cc3cccc(OCC(=O)O)c3C[C@@H]2C[C@@H]1O [NCGC00319020-01]	> 20 µM	> 10 µM	> 20 µM	> 20 µM	> 20 µM	> 20 µM	> 20 µM	> 20 µM	> 20 µM	> 10 µM	
CCCCCCCC(=O)OCC(COC(=O)CCCCCCC)OC(=O)CCCCCCC [NCGC00091285-03]	> 20 µM	> 10 µM	> 20 µM	> 20 µM	> 20 µM	> 20 µM	> 20 µM	> 20 µM	> 20 µM	> 10 µM	
